pIC50: −log10 of the molar value. Active and inactive are the calls of the source. The rule behind the calls is not given here.
Legend:
[1] = test system: Rattus norvegicus; assay: In vivo percent change of total cholesterol compared to control at a dose 30 mg/Kg in rats fed with cholic acid (0.5%), cholesterol (1.5%) and peanut oil (5.5%).; format: functional
[2] = target: O-acyltransferase (Oryctolagus cuniculus, UniProt G1SFD9); assay: In vitro inhibitory activity against ACAT was determined in rabbit intestinal microsome from cholesterol-fed animals; format: microsomes, Intestine
[3] = test system: Rattus norvegicus; assay: Compound was evaluated in vivo for percent change of total cholesterol compared to control at a dose 30 mg/Kg in rats fed with cholic acid (0.5%), cholesterol (1.5%) and peanut oil (5.5%); No change; format: functional, organism-based

O-acyltransferase, sequence (G1SFD9 1-524): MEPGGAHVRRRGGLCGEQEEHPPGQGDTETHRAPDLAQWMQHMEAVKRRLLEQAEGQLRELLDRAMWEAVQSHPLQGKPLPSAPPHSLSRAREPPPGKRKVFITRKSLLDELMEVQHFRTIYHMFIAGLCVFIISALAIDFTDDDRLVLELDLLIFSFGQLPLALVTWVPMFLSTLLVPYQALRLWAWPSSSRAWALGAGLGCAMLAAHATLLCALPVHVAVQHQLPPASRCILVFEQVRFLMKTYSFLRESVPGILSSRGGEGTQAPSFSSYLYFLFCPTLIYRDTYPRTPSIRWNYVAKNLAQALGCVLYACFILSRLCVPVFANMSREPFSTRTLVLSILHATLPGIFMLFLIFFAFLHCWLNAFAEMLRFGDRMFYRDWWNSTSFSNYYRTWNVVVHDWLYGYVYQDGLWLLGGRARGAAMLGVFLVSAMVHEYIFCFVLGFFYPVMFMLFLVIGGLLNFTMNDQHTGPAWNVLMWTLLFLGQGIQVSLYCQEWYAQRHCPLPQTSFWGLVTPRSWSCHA

Row | Structure (SMILES) | Change [1] | pIC50 [2] | Change [3]
1 | CC(C)c1cccc(C(C)C)c1NC(=O)NOCc1cccc2ccccc12 | -32% |  | 
2 | CC(C)c1cccc(C(C)C)c1NC(=O)NCC1c2ccccc2Oc2ccccc21 | -25% | 7.38 | 
3 | COc1cccc2c1CCC(NC(=O)Nc1c(C(C)C)cccc1C(C)C)C2 (stereo unspecified) | -39% | 7.77 | 
4 | CC(C)c1cccc(C(C)C)c1NC(=O)NOC(c1ccccc1)c1ccccc1 | -67% |  | 
5 | CC(C)c1cccc(C(C)C)c1NC(=O)NCC1(c2ccccc2)CCCC1 | -70% |  | 
6 | CC(C)c1cccc(C(C)C)c1NC(=O)NCC1(c2ccccc2)Cc2ccccc2C1 | -67% | 7.57 | 
7 | CC(C)c1cccc(C(C)C)c1NC(=O)NC1COc2ccccc2C1 (stereo unspecified) | -20% | 6.96 | 
8 | CC(C)c1cccc(C(C)C)c1NC(=O)NC1CCc2ccccc21 (stereo unspecified) |  | 6.04 | inactive
9 | CC(C)c1cccc(C(C)C)c1NC(=O)NCC(c1ccccc1)(c1ccccc1)c1ccccc1 | -68% | 7.04 | 
10 | CC(C)c1cccc(C(C)C)c1NC(=O)NCC(c1ccccc1)c1ccccc1 | -73% |  | 
11 | CC(C)c1cccc(C(C)C)c1NC(=O)NOC(c1ccccc1)(c1ccccc1)c1ccccc1 | -30% |  | 
12 | CC(C)c1cccc(C(C)C)c1NC(=O)NCCc1ccc2ccccc2c1 | -54% |  | 
13 | CC(C)c1cccc(C(C)C)c1NC(=O)NCc1cccc2ccccc12 | -53% | 7.47 | 
14 | CC(C)c1cccc(C(C)C)c1NC(=O)NC1Cc2ccccc2C1 | -8% | 7.02 | 
15 | CC(C)c1cccc(C(C)C)c1NC(=O)NCCc1cccc2ccccc12 | -32% |  | 
16 | CC(C)c1cccc(C(C)C)c1NC(=O)NCC1c2ccccc2-c2ccccc21 | -41% |  | 
17 | CC(C)c1cccc(C(C)C)c1NC(=O)NCC1CCCc2ccccc21 (stereo unspecified) | -47% | 7.44 | 
18 | CC(C)c1cccc(C(C)C)c1NC(=O)NC1CCc2ccccc2C1 (stereo unspecified) | -26% | 7.20 | 
19 | CC(C)c1cccc(C(C)C)c1NC(=O)NCC1CCc2ccccc21 (stereo unspecified) | -49% | 7.57 | 
20 | CC(C)c1cccc(C(C)C)c1NC(=O)NCC1(O)CCc2ccccc21 (stereo unspecified) |  | 6.09 | inactive
21 | CC(C)c1cccc(C(C)C)c1NC(=O)NCC1(O)CCCc2ccccc21 (stereo unspecified) |  | 6.46 | inactive
22 | CC(C)c1cccc(C(C)C)c1NC(=O)NCC1=CCCc2ccccc21 | -33% | 7.54 | 
23 | CC(C)c1cccc(C(C)C)c1NC(=O)NCC1(c2ccc(N(C)C)cc2)CCCC1 [NEVANIMIBE] | -76% |  | 
24 | CC(C)c1cccc(C(C)C)c1NC(=O)NC1CCc2ccccc2C12CCCC2 (stereo unspecified) | -49% | 7.51 | 
25 | CC(C)c1cccc(C(C)C)c1NC(=O)NCCc1ccccc1 | -16% |  | 
26 | CC(C)c1cccc(C(C)C)c1NC(=O)NC1CCCc2ccccc21 (stereo unspecified) |  |  | inactive
